We go through 1 molecule from ChEMBL document CHEMBL4024706 (Eur J Med Chem, 2017).

The structures appear in SMILES notation.

The target in assay [1] is Bone morphogenetic protein receptor type-1A (Homo sapiens) (UniProt P36894). The experiment in a line: Inhibition of wild-type human partial length BMPR1A (Q214 to I532 residues) expressed in bacterial expression system assessed as residual activity at 1 uM by Kinomescan method relative to control.
Assay [2] concerns the target Tyrosine-protein kinase JAK1 (Homo sapiens) (UniProt P23458). The experiment in a line: Inhibition of wild-type human partial length JAK1 JH2 pseudokinase domain (R537 to D855 residues) expressed in mammalian expression system assessed as residual activity at 1 uM by Kinomescan method relative to control.
In assay [3] the target is Mitogen-activated protein kinase kinase kinase 7 (Homo sapiens) (UniProt O43318). Description: Inhibition of wild-type human partial length TAK1 (M1 to Q303 residues) expressed in mammalian expression system assessed as residual activity at 1 uM by Kinomescan method relative to control.
The target in assay [4] is Mitogen-activated protein kinase 9 (Homo sapiens) (UniProt P45984). Description: Inhibition of wild-type human full length JNK2 (M1 to Q382 residues) expressed in mammalian expression system assessed as residual activity at 1 uM by Kinomescan method relative to control.
Assay [5] concerns the target Ephrin type-B receptor 1 (Homo sapiens) (UniProt P54762). The experiment in a line: Inhibition of wild-type human partial length EPHB1 (P589 to T911 residues) expressed in bacterial expression system assessed as residual activity at 1 uM by Kinomescan method relative to control.
Assay [6] has as its target Mitogen-activated protein kinase kinase kinase 9 (Homo sapiens) (UniProt P80192). The experiment in a line: Inhibition of wild-type human partial length MLK1 (V88 to W426 residues) expressed in bacterial expression system assessed as residual activity at 1 uM by Kinomescan method relative to control.
For assay [7], the system named is Fibroblast growth factor receptor 3 (Homo sapiens), P22607 [G697C]. Description: Inhibition of human partial length FGFR3 G697C mutant (R442 to S771 residues) expressed in bacterial expression system assessed as residual activity at 1 uM by Kinomescan method relative to control.
The subject of assay [8] is Mast/stem cell growth factor receptor Kit (Homo sapiens), P10721 [V559D,T670I]. Description: Inhibition of human partial length KIT V559D/T670I double mutant (Y545 to D952 residues) expressed in bacterial expression system assessed as residual activity at 1 uM by Kinomescan method relative to control.
Assay [9] has as its target Ribosomal protein S6 kinase alpha-1 (Homo sapiens) (UniProt Q15418). The experiment in a line: Inhibition of wild-type human partial length C-terminal RSK1 kinase domain 2 (P360 to L681 residues) expressed in bacterial expression system assessed as residual activity at 1 uM by Kinomescan method relative to control.
For assay [10], the target named is Macrophage colony-stimulating factor 1 receptor (Homo sapiens) (UniProt P07333). Description: Inhibition of wild-type human partial length CSF1R (I564 to S939 residues) expressed in bacterial expression system assessed as residual activity at 1 uM by Kinomescan method relative to control.
Assay [11] concerns the target Mitogen-activated protein kinase 4 (Homo sapiens) (UniProt P31152). Description: Inhibition of wild-type human partial length ERK4 (M1 to L365 residues) expressed in bacterial expression system assessed as residual activity at 1 uM by Kinomescan method relative to control.
Assay [12] addresses Focal adhesion kinase 1 (Homo sapiens) (UniProt Q05397). The experiment in a line: Inhibition of wild-type human partial length FAK (D402 to R696 residues) expressed in bacterial expression system assessed as residual activity at 1 uM by Kinomescan method relative to control.

Macrophage colony-stimulating factor 1 receptor (Homo sapiens), sequence (P07333 whole entry, the tested form may be a part): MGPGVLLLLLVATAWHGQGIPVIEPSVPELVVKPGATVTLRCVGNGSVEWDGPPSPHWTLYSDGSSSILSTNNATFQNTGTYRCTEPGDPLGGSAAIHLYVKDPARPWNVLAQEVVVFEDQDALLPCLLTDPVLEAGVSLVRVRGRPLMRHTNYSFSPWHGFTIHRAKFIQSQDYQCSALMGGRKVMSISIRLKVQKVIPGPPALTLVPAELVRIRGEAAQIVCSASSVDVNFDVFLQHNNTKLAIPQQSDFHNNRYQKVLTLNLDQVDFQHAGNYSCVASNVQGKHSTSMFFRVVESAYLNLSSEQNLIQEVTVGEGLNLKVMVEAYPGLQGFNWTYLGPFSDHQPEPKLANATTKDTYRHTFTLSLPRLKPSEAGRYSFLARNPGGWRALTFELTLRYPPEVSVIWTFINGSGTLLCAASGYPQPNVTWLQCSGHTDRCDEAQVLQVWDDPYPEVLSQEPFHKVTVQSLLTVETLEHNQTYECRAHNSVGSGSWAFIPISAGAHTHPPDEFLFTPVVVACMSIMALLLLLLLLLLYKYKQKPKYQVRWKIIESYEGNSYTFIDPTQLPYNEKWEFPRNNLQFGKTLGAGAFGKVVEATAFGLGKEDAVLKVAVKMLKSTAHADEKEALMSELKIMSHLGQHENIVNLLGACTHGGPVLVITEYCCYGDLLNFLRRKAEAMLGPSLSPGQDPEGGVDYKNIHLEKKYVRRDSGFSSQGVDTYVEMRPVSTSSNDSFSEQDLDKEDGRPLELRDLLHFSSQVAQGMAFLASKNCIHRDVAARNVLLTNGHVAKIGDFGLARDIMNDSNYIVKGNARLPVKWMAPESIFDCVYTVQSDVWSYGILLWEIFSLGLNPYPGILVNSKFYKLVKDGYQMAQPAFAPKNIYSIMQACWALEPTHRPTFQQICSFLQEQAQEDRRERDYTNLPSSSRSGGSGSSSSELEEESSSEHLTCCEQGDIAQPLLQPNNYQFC
Mast/stem cell growth factor receptor Kit (Homo sapiens), P10721 [V559D,T670I], sequence (P10721 whole entry V559D/T670I, the tested form may be a part): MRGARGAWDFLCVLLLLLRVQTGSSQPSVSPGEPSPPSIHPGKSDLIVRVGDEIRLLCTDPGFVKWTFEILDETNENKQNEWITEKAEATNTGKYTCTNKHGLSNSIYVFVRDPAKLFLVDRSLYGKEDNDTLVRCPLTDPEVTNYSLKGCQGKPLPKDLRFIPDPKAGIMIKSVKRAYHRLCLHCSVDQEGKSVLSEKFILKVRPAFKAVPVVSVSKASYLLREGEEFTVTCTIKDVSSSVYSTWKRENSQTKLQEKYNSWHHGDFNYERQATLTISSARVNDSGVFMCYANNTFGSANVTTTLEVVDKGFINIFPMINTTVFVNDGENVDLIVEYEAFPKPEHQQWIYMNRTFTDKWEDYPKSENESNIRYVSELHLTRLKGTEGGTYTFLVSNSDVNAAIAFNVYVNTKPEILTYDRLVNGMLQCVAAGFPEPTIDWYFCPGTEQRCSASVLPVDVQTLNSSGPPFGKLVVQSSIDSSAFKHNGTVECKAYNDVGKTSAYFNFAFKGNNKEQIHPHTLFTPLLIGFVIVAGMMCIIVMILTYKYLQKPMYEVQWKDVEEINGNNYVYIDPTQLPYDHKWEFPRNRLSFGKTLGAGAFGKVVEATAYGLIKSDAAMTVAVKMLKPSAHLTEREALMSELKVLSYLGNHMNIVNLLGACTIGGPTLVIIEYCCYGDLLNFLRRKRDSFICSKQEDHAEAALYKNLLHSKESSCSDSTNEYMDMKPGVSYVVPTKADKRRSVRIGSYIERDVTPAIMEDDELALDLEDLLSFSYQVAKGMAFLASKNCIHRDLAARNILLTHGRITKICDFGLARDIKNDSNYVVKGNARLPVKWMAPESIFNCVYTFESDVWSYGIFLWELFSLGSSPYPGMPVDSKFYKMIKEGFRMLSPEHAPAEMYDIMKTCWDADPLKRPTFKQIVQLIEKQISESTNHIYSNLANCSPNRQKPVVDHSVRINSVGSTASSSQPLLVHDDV
Fibroblast growth factor receptor 3 (Homo sapiens), P22607 [G697C], sequence (P22607 whole entry G697C, the tested form may be a part): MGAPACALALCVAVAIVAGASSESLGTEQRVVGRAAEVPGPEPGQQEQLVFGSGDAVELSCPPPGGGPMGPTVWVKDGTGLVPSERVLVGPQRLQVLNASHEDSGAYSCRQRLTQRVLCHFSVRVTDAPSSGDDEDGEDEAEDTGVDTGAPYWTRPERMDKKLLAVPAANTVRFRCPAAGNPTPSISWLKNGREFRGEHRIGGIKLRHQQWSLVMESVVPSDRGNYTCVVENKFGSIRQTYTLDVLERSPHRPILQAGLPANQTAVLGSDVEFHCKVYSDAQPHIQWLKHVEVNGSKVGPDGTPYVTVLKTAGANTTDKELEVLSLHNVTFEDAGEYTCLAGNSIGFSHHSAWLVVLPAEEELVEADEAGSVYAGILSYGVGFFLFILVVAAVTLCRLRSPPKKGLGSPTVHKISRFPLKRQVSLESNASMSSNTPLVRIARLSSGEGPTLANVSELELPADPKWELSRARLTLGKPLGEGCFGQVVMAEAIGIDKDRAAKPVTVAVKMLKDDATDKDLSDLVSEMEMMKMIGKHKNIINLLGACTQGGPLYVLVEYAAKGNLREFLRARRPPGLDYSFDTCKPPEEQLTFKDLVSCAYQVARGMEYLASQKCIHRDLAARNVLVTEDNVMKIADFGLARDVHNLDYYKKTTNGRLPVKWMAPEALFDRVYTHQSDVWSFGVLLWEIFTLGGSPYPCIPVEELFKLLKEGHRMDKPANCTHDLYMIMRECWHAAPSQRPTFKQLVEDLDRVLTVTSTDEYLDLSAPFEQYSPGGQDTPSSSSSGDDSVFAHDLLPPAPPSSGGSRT
Focal adhesion kinase 1 (Homo sapiens), sequence (Q05397 2-1052 limits assumed): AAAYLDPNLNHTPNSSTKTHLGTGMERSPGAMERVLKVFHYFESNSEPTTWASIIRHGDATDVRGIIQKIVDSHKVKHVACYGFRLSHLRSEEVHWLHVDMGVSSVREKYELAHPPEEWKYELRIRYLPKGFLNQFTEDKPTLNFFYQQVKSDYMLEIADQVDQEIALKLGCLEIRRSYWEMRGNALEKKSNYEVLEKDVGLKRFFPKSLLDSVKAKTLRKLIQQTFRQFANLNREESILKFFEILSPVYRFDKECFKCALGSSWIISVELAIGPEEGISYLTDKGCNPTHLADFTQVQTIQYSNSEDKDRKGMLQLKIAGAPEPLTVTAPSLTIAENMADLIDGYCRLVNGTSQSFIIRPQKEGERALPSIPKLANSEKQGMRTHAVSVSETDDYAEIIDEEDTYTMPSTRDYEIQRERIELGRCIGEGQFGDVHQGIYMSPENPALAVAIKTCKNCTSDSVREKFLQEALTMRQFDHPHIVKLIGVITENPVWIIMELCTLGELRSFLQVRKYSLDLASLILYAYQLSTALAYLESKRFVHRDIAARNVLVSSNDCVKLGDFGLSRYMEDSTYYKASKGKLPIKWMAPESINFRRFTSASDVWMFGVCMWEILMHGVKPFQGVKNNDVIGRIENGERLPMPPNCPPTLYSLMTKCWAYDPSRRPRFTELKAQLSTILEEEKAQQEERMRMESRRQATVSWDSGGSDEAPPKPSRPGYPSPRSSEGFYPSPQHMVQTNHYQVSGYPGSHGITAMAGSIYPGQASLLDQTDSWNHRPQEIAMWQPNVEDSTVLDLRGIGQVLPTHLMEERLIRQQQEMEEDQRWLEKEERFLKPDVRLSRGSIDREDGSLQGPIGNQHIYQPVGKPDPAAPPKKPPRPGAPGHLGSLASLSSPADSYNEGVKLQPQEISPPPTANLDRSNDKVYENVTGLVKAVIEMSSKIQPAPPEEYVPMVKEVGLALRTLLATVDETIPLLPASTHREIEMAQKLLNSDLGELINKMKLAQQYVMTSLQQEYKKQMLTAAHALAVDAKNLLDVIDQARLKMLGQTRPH
Bone morphogenetic protein receptor type-1A (Homo sapiens), sequence (P36894 whole entry, the tested form may be a part): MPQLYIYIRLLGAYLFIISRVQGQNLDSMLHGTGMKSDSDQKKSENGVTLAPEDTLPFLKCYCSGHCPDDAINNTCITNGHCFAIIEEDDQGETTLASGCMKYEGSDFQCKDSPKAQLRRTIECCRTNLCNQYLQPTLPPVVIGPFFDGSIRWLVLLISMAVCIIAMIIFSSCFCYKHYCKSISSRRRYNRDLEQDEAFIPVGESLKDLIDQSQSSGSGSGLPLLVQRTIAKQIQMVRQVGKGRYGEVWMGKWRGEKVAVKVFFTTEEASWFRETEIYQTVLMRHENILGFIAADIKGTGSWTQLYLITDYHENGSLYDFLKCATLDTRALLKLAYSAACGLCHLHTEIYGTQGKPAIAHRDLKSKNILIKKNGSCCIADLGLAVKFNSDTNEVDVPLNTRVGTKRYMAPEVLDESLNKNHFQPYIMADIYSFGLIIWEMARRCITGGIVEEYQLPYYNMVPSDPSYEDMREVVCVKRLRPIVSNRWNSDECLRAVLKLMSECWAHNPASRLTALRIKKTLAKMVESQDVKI
Mitogen-activated protein kinase 4 (Homo sapiens), sequence (P31152 whole entry, the tested form may be a part): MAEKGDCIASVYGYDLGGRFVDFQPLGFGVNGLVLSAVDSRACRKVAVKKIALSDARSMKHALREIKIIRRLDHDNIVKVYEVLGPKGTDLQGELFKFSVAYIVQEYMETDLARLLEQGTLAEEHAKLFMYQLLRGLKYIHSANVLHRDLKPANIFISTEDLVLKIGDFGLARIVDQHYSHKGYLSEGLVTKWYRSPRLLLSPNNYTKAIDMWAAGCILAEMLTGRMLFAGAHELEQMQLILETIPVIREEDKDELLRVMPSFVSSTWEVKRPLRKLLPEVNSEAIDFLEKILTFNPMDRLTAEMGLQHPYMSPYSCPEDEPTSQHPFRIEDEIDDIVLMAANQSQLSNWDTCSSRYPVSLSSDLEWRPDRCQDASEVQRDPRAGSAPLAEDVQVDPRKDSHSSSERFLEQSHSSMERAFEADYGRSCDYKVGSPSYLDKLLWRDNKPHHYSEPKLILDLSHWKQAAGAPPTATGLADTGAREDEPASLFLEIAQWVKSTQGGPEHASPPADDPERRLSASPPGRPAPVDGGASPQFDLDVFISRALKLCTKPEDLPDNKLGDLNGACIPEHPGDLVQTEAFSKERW

For `C=CC(=O)Nc1cc(Nc2cc(-c3cccc(NC(=O)c4ccc(C(C)(C)C)cc4)c3C)cn(C)c2=O)ccc1C(=O)N1CCOCC1`, the Activity in assay [1] came out at 98%; in [2] it was 86%; in [3], 89%; in assay [4], 98%; in [5], 100%; in assay [6], 99%. Besides, the Activity in [7] is 100%; in assay [8], 96%; in assay [9], 100%; in assay [10], 86%; in [11], 95%; in assay [12] it was 96%.
